Measured values from publication PMC12527173, “Cytotoxic, anti-inflammatory, antioxidant, and anti-glyoxalase-I evaluation of chelating substances: In silico and in vitro study” (PLOS One, 2025).
Read-outs that look alike come from different tables or passages of the source.

Key:
[1] = tested on: SW480 colorectal cancer cell line; assay: SRB cytotoxicity assay, SW480; assay type: cell-based; conditions: Homo sapiens, 72 h incubation, n = 12, read-out: Cytotoxicity (as of %Control) IC50 value SW480
Procedure: (§1) The cancer cell lines were cultured in DMEM supplemented with 10% FBS (Bio Whittaker, Verviers, Belgium), HEPES Buffer (10 mM), gentamicin (50 µg/mL), L-glutamine (100 μg/mL), streptomycin ([…]), penicillin (100 µg/mL), and 4-(2-hydroxyethyl)-1-piperazineethanesulfonic acid (HEPES) Buffer (Sigma, St. Luis, MO, USA). The Sulforhodamine B used was obtained from Santa Cruz Biotechnology, Inc. in Texas, USA. […] Periodontal ligament fibroblasts (PDL) were utilized to assess specific cytotoxicity. Cancer cell lines that have survived offer several benefits. They provide a consistent and uninterrupted source of cells, so bypassing any ethical concerns related to the use of human tissue. Additionally, they are cost-effective. The cytotoxicity levels were assessed using the Sulforhodamine B (SRB) colorimetric assay, provided by Santa Cruz Biotechnology, Inc. in Texas, USA. The Spectro Scan 80D UV-VIS spectrophotometer, manufactured by Sedico Ltd. in Nicosia, Cyprus, was employed for this cytotoxicity screening. The cells were co-incubated with substances or a reference agent at various doses ranging from 5 to 200 μg/mL. […] The reduction in cell viability was analyzed by plotting Dose-response curves and expressing the data as a percentage of the control optical density. The IC50 values were obtained using regression analysis.

[2] = tested on: LPS-primed RAW 264.7 murine macrophages (nitrite / iNOS); assay: Anti-inflammatory (nitrite) determination in LPS-primed macrophages; assay type: cell-based; conditions: Mus musculus, read-out: iNOS- IC50 value
Procedure: The RAW 264.7 mouse macrophage cell line (ATCC® TIB-71) was cultivated in high glucose DMEM with 10% foetal bovine serum (FBS), 100 U/mL penicillin, 100 μg/mL streptomycin, and 100 μg/mL L-glutamate. The cells were incubated at 37°C in a humidified environment with 95% air and 5% CO2. Confluent macrophages (2 x 10^5/well) were cultured with lipopolysaccharide (LPS; 20 μg/mL; Sigma, St. Luis, MO, USA) and indomethacin (25–200 μg/mL) as the positive control, along with various concentrations (5–200 μg/mL) of treatment compounds. The cells were incubated for 24 hours. 100 μL of Griess reagent were combined with 100 μL portions of cell culture medium and left to incubate at room temperature for 10 minutes. The absorbance at a wavelength of 550 nm was measured using a microplate reader, namely the Spectro Scan 80D UV-VIS spectrophotometer manufactured by Sedico Ltd. in Nicosia, Cyprus. The nitrite concentration was assessed by comparing it to a standard curve of sodium nitrite. A cytotoxicity protocol using SRB was conducted to assess the impact of the test substances under study on RAW 264.7 viability.

[3] = DPPH free radical scavenger assay; conditions: DPPH radical scavenging; n = 12
From the text: This approach relies on the reduction of the radicals, which causes a change in colour from oxidized purple to reduced yellow. Primarily, Diphenyl-2-picryl-hydrazyl (DPPH) is reduced in a solution of methanol (MeOH) when a chemical that donates hydrogen is present. This reduction is due to the creation of the non-radical form DPPH-H. The alteration in colour can be precisely assessed by employing a spectrophotometer within the wavelength range of 515–520 nm. Unlike other assays for radical scavenging, the DPPH radical is stable and yields consistent spectroscopic data. A 0.2 mM DPPH solution was diluted with MeOH and then combined with treatment compounds and ascorbic acid in a 1:1 concentration ratio using a 96-well plate. […] The solution was then incubated for one hour, isolated from light. Subsequently, the alteration in absorbance at a wavelength of 517 nm was quantified using a microplate reader manufactured by Bio-Tek Instrument in the United States. Ascorbic acid served as a strong and traditional benchmark for comparing the effectiveness of radical scavenging agents. The DPPH radical scavenging activity inhibition was calculated using the following equation, where A denotes photometric absorbance: The formula to calculate the percentage difference between a control and a sample is: (A control – A sample)/ A control x 100% [71, 72].

[4] = tested on: cancer cell lines (panel); assay: SRB cytotoxicity assay, ranges stated over several cancer cell lines; assay type: cell-based; conditions: Homo sapiens
Procedure: as §1

[5] = RAW264.7, LPS-primed RAW 264.7, nitrite by Griess, 24 h, n = 12

| IC50 [2, 5] | IC50 [3] | Structure (SMILES) | IC50 [1] | IC50 ([2]; RAW264.7, 24 h) | IC50 ([4]; Pancreatic cancer cell, after 72 hours of incubation, read-out: IC50, colorectal and pancreatic cancer cells) | IC50 ([4]; A375, A549, PC3, MCF7, T47D, HeLa, read-out: IC50 range, decreases in viability in other cancer cell cultures) | IC50 ([4]; CACO2, HCT116, SW620, HT29, read-out: IC50 range, anti-proliferation in colorectal cancer cells) | IC50 ([4]; Table 3 cell lines, read-out: IC50, skin melanoma, lung carcinoma, mammary and cervix adenocarcinomas) |
| --- | --- | --- | --- | --- | --- | --- | --- | --- |
| 3.47 ± 0.49 µM | 26.3 ± 0.65 µM | O=c1cc(O)cc(/C=C/c2ccc(O)c(O)c2)o1 [Hispidin] | 34.6 ± 3.11 µM | – | – | – | – | – |
| 1.85 ± 0.34 µM | 580 ± 26.5 µM | O=C1c2ccc(O)c(O)c2C(=O)c2c(O)ccc(O)c21 [Quinalizarin] | 118 ± 3.04 µM | – | – | – | – | – |
| 1.19 ± 0.17 µM | 92.1 ± 2.4 µM | Cc1ccc(C(=O)c2cc(O)c(O)c([N+](=O)[O-])c2)cc1 [Tolcapone, reference compound] | 165 ± 6.58 µM | – | – | – | – | – |

Continued, compound first:

| Structure (SMILES) | IC50 [2, 5] | IC50 [3] | IC50 [1] | IC50 ([2]; RAW264.7, 24 h) | IC50 ([4]; Pancreatic cancer cell, after 72 hours of incubation, read-out: IC50, colorectal and pancreatic cancer cells) | IC50 ([4]; A375, A549, PC3, MCF7, T47D, HeLa, read-out: IC50 range, decreases in viability in other cancer cell cultures) | IC50 ([4]; CACO2, HCT116, SW620, HT29, read-out: IC50 range, anti-proliferation in colorectal cancer cells) | IC50 ([4]; Table 3 cell lines, read-out: IC50, skin melanoma, lung carcinoma, mammary and cervix adenocarcinomas) |
| --- | --- | --- | --- | --- | --- | --- | --- | --- |
| C[C@]12CC[C@@H]3c4ccc(O)c(O)c4CC[C@H]3[C@@H]1CC[C@@H]2O [4-hydroxy-estradiol] | 0.25 ± 0.04 µM | 506 ± 102 µM | 109 ± 6.86 µM | – | – | – | – | – |
| CC(C)=CC[C@@H](O)C1=CC(=O)c2c(O)ccc(O)c2C1=O [Shikonin] | – | 34.4 ± 5.04 µM | 41.6 ± 6.37 µM | 0.27 ± 0.05 µM | – | – | – | – |
| CC(/C=C/C(=O)NO)=C\[C@@H](C)C(=O)c1ccc(N(C)C)cc1 [Trichostatin A, reference compound] | 1.69 ± 0.12 µM | 99.3 ± 15.5 µM | 44.3 ± 4.67 µM | – | ≤ 27 µM | 1.4 to 14.7 µM | 14 to 27 µM | < 10 µM |
